Assay results taken from patent publication US10487068B2, “Pyridazine derivatives as RORc modulators” (Genentech, Inc., priority 2015, dated 2019).

The molecules below were run against T1, RORc ligand binding domain (Homo sapiens, UniProt P51449) (assay: In Vitro RORc Ligand Binding Assay). Details: RORc IC50, radioligand 25-[3H]hydroxycholesterol 6 nM; 0.6 ug/mL RORc receptor; 3 h at 25° C.
T1 sequence (P51449 269-508 limits assumed): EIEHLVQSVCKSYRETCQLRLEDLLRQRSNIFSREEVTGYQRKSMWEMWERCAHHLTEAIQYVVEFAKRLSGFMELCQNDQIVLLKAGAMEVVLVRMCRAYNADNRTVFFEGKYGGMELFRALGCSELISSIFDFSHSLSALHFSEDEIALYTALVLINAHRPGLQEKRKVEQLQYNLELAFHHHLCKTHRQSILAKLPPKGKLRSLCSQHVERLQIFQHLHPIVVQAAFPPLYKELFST

Question: Which IC50 does the source give for `CC(C)(O)c1coc(-c2ccnc([C@@]34CC[C@@H](c5cc(-c6c(F)cccc6F)nnc53)C4(C)C)n2)n1` [Example 281, 2-(2-(2-((5R,8R)-3-(2,6-difluorophenyl)-9,9-dimethyl-5,6,7,8-tetrahydro-5,8-methanocinnolin-8-yl)pyrimidin-4-yl)oxazol-4-yl)propan-2-ol] here?
Answer: The IC50 was 14.9 nM.

Question: Which IC50 does the source give for `COC(=O)c1ccn(-c2nccc([C@@]34CC[C@@H](c5cc(-c6c(F)cccc6F)nnc53)C4(C)C)n2)n1` [Example 282] here?
Answer: The IC50 was 4.9 nM.

Question: How did the IC50 turn out when `CC1(C)[C@H]2CC[C@]1(c1nc(-c3nc(C(N)=O)no3)ncc1F)c1nnc(-c3c(F)cccc3F)cc12` [Example 283] was run?
Answer: The IC50 was 11.6 nM.

Question: With `CC1(C)[C@H]2CC[C@]1(c1nccc(-n3ccc(CO)n3)n1)c1nnc(-c3c(F)cccc3F)cc12` [Example 284, (1-(2-((5R,8R)-3-(2,6-difluorophenyl)-9,9-dimethyl-5,6,7,8-tetrahydro-5,8-methanocinnolin-8-yl)pyrimidin-4-yl)-1H-pyrazol-3-yl)methanol] as the molecule, how does the IC50 read?
Answer: The IC50 was 27.6 nM.

Question: For `CC1(C)[C@H]2CC[C@]1(c1cncc(-c3nc(C4(O)CC4)n[nH]3)n1)c1nnc(-c3c(F)cccc3F)cc12` [Example 285, 1-(5-(6-((5R,8S)-3-(2,6-difluorophenyl)-9,9-dimethyl-5,6,7,8-tetrahydro-5,8-methanocinnolin-8-yl)pyrazin-2-yl)-1H-1,2,4-triazol-3-yl)cyclopropanol], which IC50 is on record?
Answer: The IC50 was 4.1 nM.

Question: For `CC1(C)[C@H]2CC[C@]1(c1cncc(-c3nc([C@@H](O)CO)n[nH]3)n1)c1nnc(-c3c(F)cccc3F)cc12` [Example 286, (R)-1-(5-(6-((5R,8S)-3-(2,6-difluorophenyl)-9,9-dimethyl-5,6,7,8-tetrahydro-5,8-methanocinnolin-8-yl)pyrazin-2-yl)-1H-1,2,4-triazol-3-yl)ethane-1,2-diol], which IC50 is on record?
Answer: Its IC50 is 10.6 nM.

Question: For `CC1(C)[C@H]2CC[C@]1(c1nc(-n3ccc(CO)n3)ncc1F)c1nnc(-c3c(F)cccc3F)cc12` [Example 287], which IC50 is on record?
Answer: Its IC50 is 12.1 nM.

Question: With `CC1(C)[C@H]2CC[C@]1(c1nc(-c3nc(CO)no3)ncc1F)c1nnc(-c3c(F)cccc3F)cc12` [Example 288, (5-(4-((5R,8S)-3-(2,6-difluorophenyl)-9,9-dimethyl-5,6,7,8-tetrahydro-5,8-methanocinnolin-8-yl)-5-fluoropyrimidin-2-yl)-1,2,4-oxadiazol-32-(1-(4-((5R,8S)-3-(2,6-difluorophenyl)-9,9-dimethyl-5,6,7,8-tetrahydro-5,8-methanocinnolin-8-yl)pyrimidin-2-yl)-1H-pyrazol-3-yl)propan-2-ol-yl)methanol] as the molecule, how does the IC50 read?
Answer: Its IC50 is 20.3 nM.

Question: Which IC50 does the source give for `CC1(C)[C@H]2CC[C@]1(c1ccnc(-c3ccc(=O)[nH]c3)n1)c1nnc(-c3c(F)cccc3F)cc12` [Example 289] here?
Answer: Its IC50 is 15.1 nM.

Question: For `CC(C)(O)c1ccn(-c2nccc([C@@]34CC[C@@H](c5cc(-c6c(F)cccc6F)nnc53)C4(C)C)n2)n1` [Example 290], which IC50 is on record?
Answer: Its IC50 is 33.5 nM.

Question: How did the IC50 turn out when `CC1(C)[C@H]2CC[C@]1(c1ccnc(-n3ccc(C(N)=O)n3)n1)c1nnc(-c3c(F)cccc3F)cc12` [Example 291] was run?
Answer: Its IC50 is 34.3 nM.

Question: With `CC(C)(O)c1nc(-c2ncc(Cl)c([C@@]34CC[C@@H](c5cc(-c6c(F)cccc6F)nnc53)C4(C)C)n2)no1` [Example 292] as the molecule, how does the IC50 read?
Answer: Its IC50 is 13.9 nM.

Question: With `CC1(C)[C@H]2CC[C@]1(c1cncc(-c3nc(C[C@H](O)CO)n[nH]3)n1)c1nnc(-c3c(F)cccc3F)cc12` [Example 293, (S)-3-(5-(6-((5R,8S)-3-(2,6-difluorophenyl)-9,9-dimethyl-5,6,7,8-tetrahydro-5,8-methanocinnolin-8-yl)pyrazin-2-yl)-1H-1,2,4-triazol-3-yl)propane-1,2-diol] as the molecule, how does the IC50 read?
Answer: The IC50 was 28 nM.

Question: Which IC50 does the source give for `CC1(C)[C@H]2CC[C@]1(c1cncc(-c3nc(CS(C)(=O)=O)n[nH]3)n1)c1nnc(-c3c(F)cccc3F)cc12` [Example 294] here?
Answer: The IC50 was 23.3 nM.

Question: For `CC[C@H](O)c1n[nH]c(-c2cncc([C@@]34CC[C@@H](c5cc(-c6c(F)cccc6F)nnc53)C4(C)C)n2)n1` [Example 295, (S)-1-(5-(6-((5R,8S)-3-(2,6-difluorophenyl)-9,9-dimethyl-5,6,7,8-tetrahydro-5,8-methanocinnolin-8-yl)pyrazin-2-yl)-1H-1,2,4-triazol-3-yl)propan-1-ol], which IC50 is on record?
Answer: Its IC50 is 15.2 nM.

Question: For `CC1(C)[C@H]2CC[C@]1(c1cncc(C3=NNC(=O)CN3)n1)c1nnc(-c3c(F)cccc3F)cc12` [Example 296, 3-(6-((5R,8S)-3-(2,6-difluorophenyl)-9,9-dimethyl-5,6,7,8-tetrahydro-5,8-methanocinnolin-8-yl)pyrazin-2-yl)-4,5-dihydro-1,2,4-triazin-6(1H)-one], which IC50 is on record?
Answer: The IC50 was 20.9 nM.

Question: Which IC50 does the source give for `C[C@H](O)Cc1n[nH]c(-c2cncc([C@@]34CC[C@@H](c5cc(-c6c(F)cccc6F)nnc53)C4(C)C)n2)n1` [Example 297, (S)-1-(5-(6-((5R,8S)-3-(2,6-difluorophenyl)-9,9-dimethyl-5,6,7,8-tetrahydro-5,8-methanocinnolin-8-yl)pyrazin-2-yl)-1H-1,2,4-triazol-3-yl)propan-2-ol] here?
Answer: The IC50 was 19.9 nM.

Question: For `Cc1n[nH]cc1-c1nccc([C@@]23CC[C@@H](c4cc(-c5c(F)cccc5F)nnc42)C3(C)C)n1` [Example 298], which IC50 is on record?
Answer: Its IC50 is 5.7 nM.

Question: For `CC1(C)[C@H]2CC[C@]1(c1ccnc(N3CC(C(N)=O)C3)n1)c1nnc(-c3c(F)cccc3F)cc12` [Example 299], which IC50 is on record?
Answer: The IC50 was 24.1 nM.

Question: `CC1(C)[C@H]2CC[C@]1(c1ccnc(-n3ccc(CC(N)=O)n3)n1)c1nnc(-c3c(F)cccc3F)cc12` [Example 300] was tested. Which IC50 did it give?
Answer: The IC50 was 12.2 nM.

Question: Which IC50 does the source give for `CC(C)(O)c1nc(-c2cncc([C@@]34CC[C@@H](c5cc(-c6c(F)cccc6F)nnc53)C4(C)C)n2)c[nH]1` [Example 301, 2-(4-(6-((5R,8S)-3-(2,6-difluorophenyl)-9,9-dimethyl-5,6,7,8-tetrahydro-5,8-methanocinnolin-8-yl)pyrazin-2-yl)-1H-imidazol-2-yl)propan-2-ol] here?
Answer: Its IC50 is 13.6 nM.

Question: How did the IC50 turn out when `CC1(C)[C@H]2CC[C@]1(c1nccc(-c3ccn[nH]3)n1)c1nnc(-c3c(F)cccc3F)cc12` [Example 302, (5R,8R)-8-(4-(1H-pyrazol-5-yl)pyrimidin-2-yl)-3-(2,6-difluorophenyl)-9,9-dimethyl-5,6,7,8-tetrahydro-5,8-methanocinnoline] was run?
Answer: Its IC50 is 9.9 nM.

Question: How did the IC50 turn out when `CC1(C)[C@H]2CC[C@]1(c1ccnc(-n3ccc(=O)[nH]3)n1)c1nnc(-c3c(F)cccc3F)cc12` [Example 303] was run?
Answer: Its IC50 is 15 nM.

Question: Which IC50 does the source give for `CC(C)(O)c1cc(-c2cccc([C@@]34CC[C@@H](c5cc(-c6c(F)cccc6F)nnc53)C4(C)C)n2)[nH]n1` [Example 304, 2-(5-(6-((5R,8S)-3-(2,6-difluorophenyl)-9,9-dimethyl-5,6,7,8-tetrahydro-5,8-methanocinnolin-8-yl)pyridin-2-yl)-1H-pyrazol-3-yl)propan-2-ol] here?
Answer: The IC50 was 9.4 nM.

Question: `CC1(C)[C@H]2CC[C@]1(c1ccnc(-n3cnc(N)n3)n1)c1nnc(-c3c(F)cccc3F)cc12` [Example 305] was tested. Which IC50 did it give?
Answer: The IC50 was 19.6 nM.

Question: How did the IC50 turn out when `CC1(C)[C@H]2CC[C@]1(c1cncc(-c3nc(CCO)n[nH]3)n1)c1nnc(-c3c(F)cccc3F)cc12` [Example 306, 2-(5-(6-((5R,8S)-3-(2,6-difluorophenyl)-9,9-dimethyl-5,6,7,8-tetrahydro-5,8-methanocinnolin-8-yl)pyrazin-2-yl)-1H-1,2,4-triazol-3-yl)ethanol] was run?
Answer: The IC50 was 16.2 nM.

Question: How did the IC50 turn out when `CC(C)(O)C1CN(c2nccc([C@@]34CC[C@@H](c5cc(-c6c(F)cccc6F)nnc53)C4(C)C)n2)C1` [Example 307] was run?
Answer: Its IC50 is 13.5 nM.

Question: Which IC50 does the source give for `CC1(C)[C@H]2CC[C@]1(c1cncc(-c3nc([C@@H](O)C(F)(F)F)n[nH]3)n1)c1nnc(-c3c(F)cccc3F)cc12` [Example 308, (R)-1-(5-(6-((5R,8S)-3-(2,6-difluorophenyl)-9,9-dimethyl-5,6,7,8-tetrahydro-5,8-methanocinnolin-8-yl)pyrazin-2-yl)-1H-1,2,4-triazol-3-yl)-2,2,2-trifluoroethanol] here?
Answer: Its IC50 is 104 nM.

Question: How did the IC50 turn out when `CC1(C)[C@H]2CC[C@]1(c1cncc(-c3nc([C@H](O)C(F)(F)F)n[nH]3)n1)c1nnc(-c3c(F)cccc3F)cc12` [Example 309, (S)-1-(5-(6-((5R,8S)-3-(2,6-difluorophenyl)-9,9-dimethyl-5,6,7,8-tetrahydro-5,8-methanocinnolin-8-yl)pyrazin-2-yl)-1H-1,2,4-triazol-3-yl)-2,2,2-trifluoroethanol] was run?
Answer: The IC50 was 88.4 nM.

Question: `CC1(C)[C@H]2CC[C@]1(c1cccc(-c3nc(CCO)n[nH]3)n1)c1nnc(-c3c(F)cccc3F)cc12` [Example 310, 2-(5-(6-((5R,8S)-3-(2,6-difluorophenyl)-9,9-dimethyl-5,6,7,8-tetrahydro-5,8-methanocinnolin-8-yl)pyridin-2-yl)-1H-1,2,4-triazol-3-yl)ethanol] was tested. Which IC50 did it give?
Answer: Its IC50 is 73.5 nM.

Question: `C[C@@H](O)Cc1n[nH]c(-c2cccc([C@@]34CC[C@@H](c5cc(-c6c(F)cccc6F)nnc53)C4(C)C)n2)n1` [Example 311, (R)-1-(5-(6-((5R,8S)-3-(2,6-difluorophenyl)-9,9-dimethyl-5,6,7,8-tetrahydro-5,8-methanocinnolin-8-yl)pyridin-2-yl)-1H-1,2,4-triazol-3-yl)propan-2-ol] was tested. Which IC50 did it give?
Answer: Its IC50 is 71.1 nM.

Question: `C[C@H](O)Cc1n[nH]c(-c2cccc([C@@]34CC[C@@H](c5cc(-c6c(F)cccc6F)nnc53)C4(C)C)n2)n1` [Example 312, (S)-1-(5-(6-((5R,8S)-3-(2,6-difluorophenyl)-9,9-dimethyl-5,6,7,8-tetrahydro-5,8-methanocinnolin-8-yl)pyridin-2-yl)-1H-1,2,4-triazol-3-yl)propan-2-ol] was tested. Which IC50 did it give?
Answer: Its IC50 is 62.7 nM.

Question: `CC1(C)[C@H]2CC[C@]1(c1cccc(-c3cc(CO)n[nH]3)n1)c1nnc(-c3c(F)cccc3F)cc12` [Example 313, (5-(6-((5R,8S)-3-(2,6-difluorophenyl)-9,9-dimethyl-5,6,7,8-tetrahydro-5,8-methanocinnolin-8-yl)pyridin-2-yl)-1H-pyrazol-3-yl)methanol] was tested. Which IC50 did it give?
Answer: Its IC50 is 1.6 nM.
